Measurements published in paper PMC5302078 (Journal of Biomolecular Screening, 2016).

Molecular target: T1, breast cancer resistance protein (BCRP) (Homo sapiens, UniProt Q9UNQ0)
T1 sequence (Q9UNQ0 1-655): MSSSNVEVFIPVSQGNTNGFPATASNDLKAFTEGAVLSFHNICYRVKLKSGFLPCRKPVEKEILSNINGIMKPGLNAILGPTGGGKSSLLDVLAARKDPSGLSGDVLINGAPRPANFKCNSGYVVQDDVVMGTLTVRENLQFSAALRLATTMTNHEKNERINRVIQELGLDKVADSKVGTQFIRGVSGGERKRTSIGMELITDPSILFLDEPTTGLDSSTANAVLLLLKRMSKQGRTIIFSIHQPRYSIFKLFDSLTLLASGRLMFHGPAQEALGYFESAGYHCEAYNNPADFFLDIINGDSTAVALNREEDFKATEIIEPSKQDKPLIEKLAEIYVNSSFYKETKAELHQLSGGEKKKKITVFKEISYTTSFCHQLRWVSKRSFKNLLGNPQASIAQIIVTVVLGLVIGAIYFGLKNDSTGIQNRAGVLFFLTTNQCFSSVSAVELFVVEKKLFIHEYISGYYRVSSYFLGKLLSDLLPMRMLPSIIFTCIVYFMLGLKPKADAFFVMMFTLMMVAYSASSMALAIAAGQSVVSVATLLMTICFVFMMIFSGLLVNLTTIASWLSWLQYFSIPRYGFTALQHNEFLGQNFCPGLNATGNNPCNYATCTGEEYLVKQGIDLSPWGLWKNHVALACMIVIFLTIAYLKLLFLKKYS
Assay: mitoxantrone accumulation in BCRP-overexpressing PLB985 cells, flow cytometry
Assay type: cell-based

Structure (SMILES) | IC50 [nM]
COc1cc(N)c(Cl)cc1C(=O)NC1CCN(CCCOc2ccc(F)cc2)CC1OC (centres unmarked) [cisapride] | 400 ± 100
O=C(Nc1c(Cl)cncc1Cl)c1ccc(OC(F)F)c(OCC2CC2)c1 [roflumilast] | 900 ± 200
